These results are taken from patent US11028088B2, “Modulators of BTK proteolysis and methods of use” (Yale University, priority 2018, dated 2021).

For experiment [1], the target named is T1, HER3 (Homo sapiens, UniProt P21860).
T1 construct: endogenous in cells; host or cells: OVCAR8
The experiment can be described thus: HER3/ERBB3 degradation (western blot, OVCAR8 cells). The class given is cell-based. Here is the method:
FIG. 10 illustrates a Western blot of Compound 102-related degradation of ERBB3.
In various embodiments, treatment with PROTAC was performed in one of two ways: 1) For experiments involving >16 h exposure to compound, a 1000× stock was added to cells followed by gentle agitation; 2) For shorter treatments, a 2× stock was added to an equal volume of cells to ensure uniform drug exposure. For immortalized cell lines, 2×10^6 cells per treatment condition were collected and washed once with ice cold PBS (IX), followed by lysis in buffer containing 20 mM Tris [pH 8.0], 0.25% sodium deoxycholate, 1% Triton X-100, supplemented with protease (Roche) and phosphatase inhibitors (10 mM NaF, 2 mM Na3VO4, 10 mM β-glycerophosphate, 10 mM Na-pyrophosphate). Lysates were spun at 15,000×g for 10 min at 4° C. and supernatant was quantified for total protein content using the Pierce BCA Protein Assay (Thermo Fisher Scientific). 30 μg of protein was loaded onto 12% SDS-PAGE gels or 4-15% Mini-PROTEAN TGX precast gradient gels (Bio-Rad), transferred onto nitrocellulose membranes, and probed with the specified primary antibodies overnight with rocking at 4° C. in 1×TBS-T containing 5% non-fat milk.
(§1) Either anti-rabbit or anti-mouse HRP-conjugated secondary antibodies (Pierce) were incubated with the membranes for 1 h at room temperature at 1:10,000 dilutions in 5% non-fat milk in IX TBS-T. Imaging was performed using the ECL Prime chemiluminescent western blot detection reagents (Amersham) followed by visualization with the Bio-Rad ChemiDoc imaging instrument. All western blots were subsequently processed and quantified using the accompanying Bio-Rad Image Lab software. Primary antibodies used were: Anti-actin antibody (Cat. #MA 1-744) purchased from ThermoFisher Scientific; anti-BTK (Cat. #8547), anti-pBTK (Y223, Cat. #5082), anti-ITK (Cat. #2380), anti-GAPDH (Cat. #5179), anti-IKZF1 (Cat. #9034), and anti-IKZF3 (Cat. #15103) antibodies purchased from Cell Signaling Technology. All antibodies were used at 1:1,000 dilutions in 5% non-fat milk in 1×TBS-Tween (TBS-T) or Blotto blocker (Thermo Scientific) unless otherwise noted in supplier specifications.
In general terms: Immunoblotting shows a protein as a band on a membrane.

Experiment [2] deals with BTK (Homo sapiens, UniProt Q06187). Nature of the experiment: BTK degradation in NAMALWA cells (immunoblot). The class given is cell-based. Set-up: host or cells: NAMALWA. To be noted: for ability to degrade BTK: dose escalation, 24 h; for DC50: concentration needed to degrade 50% of the total pool of BTK; for Max: maximal BTK degradation. As to the method: NAMALWA and Jurkat cell lines were purchased from ATCC and cultured according to supplier guidelines at 37° C. […] Wild-type and C481S BTK XLA cell lines were cultured as previously described (39). Written, informed consent was obtained prior to the collection of cells from CLL patients using the IWCLL2008 criteria. Isolation of mononuclear cells from peripheral blood was prepared using density gradient centrifugation. B-cells were then negatively selected ([…] Technologies). […] They were maintained at 37° C. in 5% CO2.
BTK, sequence (Q06187 whole entry): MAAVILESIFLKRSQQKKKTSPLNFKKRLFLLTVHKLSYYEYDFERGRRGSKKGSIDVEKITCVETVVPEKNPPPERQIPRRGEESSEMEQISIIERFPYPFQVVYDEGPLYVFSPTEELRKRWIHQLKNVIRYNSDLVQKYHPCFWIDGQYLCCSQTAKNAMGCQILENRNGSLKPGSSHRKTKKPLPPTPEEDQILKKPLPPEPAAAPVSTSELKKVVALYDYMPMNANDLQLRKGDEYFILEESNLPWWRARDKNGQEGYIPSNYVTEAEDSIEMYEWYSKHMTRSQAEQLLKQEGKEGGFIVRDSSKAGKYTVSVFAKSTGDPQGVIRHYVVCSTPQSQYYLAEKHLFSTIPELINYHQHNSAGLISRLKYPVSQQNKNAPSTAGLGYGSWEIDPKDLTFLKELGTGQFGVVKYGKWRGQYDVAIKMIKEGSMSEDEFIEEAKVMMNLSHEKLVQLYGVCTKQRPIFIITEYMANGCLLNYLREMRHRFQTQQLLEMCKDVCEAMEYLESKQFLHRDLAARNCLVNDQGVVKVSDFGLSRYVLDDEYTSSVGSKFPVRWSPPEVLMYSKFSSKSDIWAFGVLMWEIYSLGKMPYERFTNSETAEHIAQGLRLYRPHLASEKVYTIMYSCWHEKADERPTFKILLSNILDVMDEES
Lysates were spun at 15,000×g for 10 min at 4° C. and supernatant was quantified for total protein content using the Pierce BCA Protein Assay (Thermo Fisher Scientific).
as §1, with “Primary antibodies used were: Anti-actin antibody (Cat. #MA 1-744) purchased from ThermoFisher Scientific; anti-BTK (Cat. #8547), anti-pBTK (Y223, Cat. #5082), anti-ITK (Cat. #2380), anti-GAPDH (Cat. #5179), anti-IKZF1 (Cat. #9034), and anti-IKZF3 (Cat. #15103) antibodies purchased from Cell Signaling Technology.” left out

Where two headings read alike, the source gives them in different places.

T1 sequence (P21860 20-1342): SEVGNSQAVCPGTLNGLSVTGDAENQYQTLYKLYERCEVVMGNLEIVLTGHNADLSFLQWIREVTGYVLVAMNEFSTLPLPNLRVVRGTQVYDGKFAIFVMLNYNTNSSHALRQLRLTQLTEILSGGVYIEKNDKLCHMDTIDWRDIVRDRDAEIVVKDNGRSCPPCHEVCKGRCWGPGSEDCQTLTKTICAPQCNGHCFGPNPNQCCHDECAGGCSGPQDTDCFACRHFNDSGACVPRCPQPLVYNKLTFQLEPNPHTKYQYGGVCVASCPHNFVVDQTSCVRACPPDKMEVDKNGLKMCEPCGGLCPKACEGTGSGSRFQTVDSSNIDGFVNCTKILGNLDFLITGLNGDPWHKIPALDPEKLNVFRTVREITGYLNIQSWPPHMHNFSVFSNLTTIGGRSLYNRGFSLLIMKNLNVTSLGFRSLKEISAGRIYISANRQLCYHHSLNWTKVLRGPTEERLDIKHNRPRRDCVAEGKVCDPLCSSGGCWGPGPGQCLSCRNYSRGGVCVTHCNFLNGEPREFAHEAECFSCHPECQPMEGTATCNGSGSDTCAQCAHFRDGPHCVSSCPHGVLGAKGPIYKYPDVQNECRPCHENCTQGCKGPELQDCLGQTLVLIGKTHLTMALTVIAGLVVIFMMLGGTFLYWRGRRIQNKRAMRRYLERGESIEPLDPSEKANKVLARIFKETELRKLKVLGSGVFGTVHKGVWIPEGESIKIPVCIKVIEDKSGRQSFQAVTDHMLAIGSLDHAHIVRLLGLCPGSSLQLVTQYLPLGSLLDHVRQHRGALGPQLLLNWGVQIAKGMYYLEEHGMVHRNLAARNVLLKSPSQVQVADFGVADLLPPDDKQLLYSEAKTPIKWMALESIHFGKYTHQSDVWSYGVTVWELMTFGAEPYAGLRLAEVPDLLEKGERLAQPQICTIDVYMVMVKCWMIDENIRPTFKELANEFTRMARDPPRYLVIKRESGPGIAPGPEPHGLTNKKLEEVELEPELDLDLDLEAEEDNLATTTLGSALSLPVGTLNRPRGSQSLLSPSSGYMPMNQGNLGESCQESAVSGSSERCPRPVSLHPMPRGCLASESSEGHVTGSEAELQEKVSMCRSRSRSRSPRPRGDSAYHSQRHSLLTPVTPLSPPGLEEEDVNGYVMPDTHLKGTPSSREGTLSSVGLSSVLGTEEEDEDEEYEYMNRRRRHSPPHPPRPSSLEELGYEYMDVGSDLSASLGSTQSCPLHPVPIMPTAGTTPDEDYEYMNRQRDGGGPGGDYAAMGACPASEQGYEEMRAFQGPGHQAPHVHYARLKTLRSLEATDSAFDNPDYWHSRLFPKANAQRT

By DC50 is commonly meant the concentration at which degradation of the target reaches its halfway point. For `Nc1ncnc2c1c(-c1ccc(Oc3ccccc3)cc1)nn2C1CCN(CCOCC(=O)Nc2cccc3c2C(=O)N(C2CCC(=O)NC2=O)C3=O)CC1` (stereo not drawn) [Compound 100, 2-(2-(4-(4-amino-3-(4-phenoxyphenyl)-1H-pyrazolo[3,4-d]pyrimidin-1-yl)piperidin-1-yl)ethoxy)-N-(2-(2,6-dioxopiperidin-3-yl)-1,3-dioxoisoindolin-4-yl)acetamide], in experiment [1], the “HER3 Degradation” value is “No”. In experiment [2] (NAMALWA cells), the “ability to degrade BTK” value is listed as “inability to degrade BTK” and the DC50 result is listed as “No Degradation (n = 4)”.

With `Nc1ncnc2c1c(-c1ccc(Oc3ccccc3)cc1)nn2C1CCN(CCOCCOCC(=O)Nc2cccc3c2C(=O)N(C2CCC(=O)NC2=O)C3=O)CC1` (stereo not drawn) [Compound 101, 2-(2-(2-(4-(4-amino-3-(4-phenoxyphenyl)-1H-pyrazolo[3,4-d]pyrimidin-1-yl)piperidin-1-yl)ethoxy)ethoxy)-N-(2-(2,6-dioxopiperidin-3-yl)-1,3-dioxoisoindolin-4-yl)acetamide], the “HER3 Degradation” value in experiment [1] is given as “No”. Moreover, in experiment [2] (NAMALWA cells), the “ability to degrade BTK” value is reported as “inability to degrade BTK” and the DC50 result is listed as “No Degradation”.

Turning to `Nc1ncnc2c1c(-c1ccc(Oc3ccccc3)cc1)nn2C1CCN(CCCOCCCOCCC(=O)Nc2cccc3c2C(=O)N(C2CCC(=O)NC2=O)C3=O)CC1` (stereo not drawn) [Compound 103, 3-(3-(3-(4-(4-amino-3-(4-phenoxyphenyl)-1H-pyrazolo[3,4-d]pyrimidin-1-yl)piperidin-1-yl)propoxy)propoxy)-N-(2-(2,6-dioxopiperidin-3-yl)-1,3-dioxoisoindolin-4-yl)propanamide], in experiment [1], the “HER3 Degradation” value is listed as “No”. The DC50 in experiment [2] (NAMALWA cells, read-out: DC50) is 68.3 nM. Also, the Max in experiment [2] (at 1.0 μM, NAMALWA cells) came to 95%.

With `Nc1ncnc2c1c(-c1ccc(Oc3ccccc3)cc1)nn2C1CCN(CCCCCCOCCOCC(=O)Nc2cccc3c2C(=O)N(C2CCC(=O)NC2=O)C3=O)CC1` (stereo not drawn) [Compound 104, 2-[2-[6-[4-[4-amino-3-(4-phenoxyphenyl)pyrazolo[3,4-d]pyrimidin-1-yl]-1-piperidyl]hexoxy]ethoxy]-N-[2-(2,6-dioxo-3-piperidyl)-1,3-dioxo-isoindolin-4-yl]acetamide], the “HER3 Degradation” value in experiment [1] is given as “No”. The “degradation of BTK at 1.0 μM” value in experiment [2] (1.0 μM, NAMALWA cells) is listed as “nearly complete degradation”. Further, the DC50 in experiment [2] (NAMALWA cells, read-out: DC50) stood at 80.6 nM. Further, in experiment [2] (at 1.0 μM, NAMALWA cells), the Max was determined as 96%.

For the compound `C=CC(=O)Nc1cc(-c2nn(C3CCN(CCCCCCOCCOCCOCC(=O)N[C@H](C(=O)N4C[C@H](O)C[C@H]4C(=O)NCc4ccc(-c5scnc5C)cc4)C(C)(C)C)CC3)c3ncnc(N)c23)ccc1Oc1ccccc1` [Compound 123, (2S,4R)-1-((S)-19-(4-(3-(3-acrylamido-4-phenoxyphenyl)-4-amino-1H-pyrazolo[3,4-d]pyrimidin-1-yl)piperidin-1-yl)-2,2-dimethyl-5-oxo-7,10,13-trioxa-4-azanonadecanecarbonyl)-4-hydroxy-N-(4-(4-methylthiazol-5-yl)benzyl)pyrrolidine-2-carboxamide], in experiment [1], the “HER3 Degradation” value is “No”.

With `C=CC(=O)Nc1cc(-c2nn(C3CCN(CCCCCCOCCCCCOCC(=O)N[C@H](C(=O)N4C[C@H](O)C[C@H]4C(=O)NCc4ccc(-c5scnc5C)cc4)C(C)(C)C)CC3)c3ncnc(N)c23)ccc1Oc1ccccc1` [Compound 124, (2S,4R)-1-((S)-2-(2-(5-(6-(4-(3-(3-acrylamido-4-phenoxyphenyl)-4-amino-1H-pyrazolo[3,4-d]pyrimidin-1-yl)piperidin-1-yl)hexyloxy)pentyloxy)acetamido)-3,3-dimethylbutanoyl)-4-hydroxy-N-(4-(4-methylthiazol-5-yl)benzyl)pyrrolidine-2-carboxamide], the “HER3 Degradation” value in experiment [1] is “No”.

In the case of `C=CC(=O)Nc1cc(-c2nn(C3CCN(CCCCCCOCCOCCOCCOCC(=O)N[C@H](C(=O)N4C[C@H](O)C[C@H]4C(=O)NCc4ccc(-c5scnc5C)cc4)C(C)(C)C)CC3)c3ncnc(N)c23)ccc1Oc1ccccc1` [Compound 125, (2S,4R)-1-((S)-22-(4-(3-(3-acrylamido-4-phenoxyphenyl)-4-amino-1H-pyrazolo[3,4-d]pyrimidin-1-yl)piperidin-1-yl)-2,2-dimethyl-5-oxo-7,10,13,16-tetraoxa-4-azadocosanecarbonyl)-4-hydroxy-N-(4-(4-methylthiazol-5-yl)benzyl)pyrrolidine-2-carboxamide], the “HER3 Degradation” value in experiment [1] is “No”.

Take `C=CC(=O)Nc1cc(-c2nn(C3CCN(CCCCCCOCCOCCOCCOCCOCC(=O)N[C@H](C(=O)N4C[C@H](O)C[C@H]4C(=O)NCc4ccc(-c5scnc5C)cc4)C(C)(C)C)CC3)c3ncnc(N)c23)ccc1Oc1ccccc1` [Compound 126, (2S,4R)-1-((S)-25-(4-(3-(3-acrylamido-4-phenoxyphenyl)-4-amino-1H-pyrazolo[3,4-d]pyrimidin-1-yl)piperidin-1-yl)-2,2-dimethyl-5-oxo-7,10,13,16,19-pentaoxa-4-azapentacosanecarbonyl)-4-hydroxy-N-(4-(4-methylthiazol-5-yl)benzyl)pyrrolidine-2-carboxamide]: the “HER3 Degradation” value in experiment [1] is recorded as “No”.

Turning to `Cc1ncsc1-c1ccc(CNC(=O)[C@@H]2C[C@@H](O)CN2C(=O)[C@H](C(C)C)N2Cc3ccccc3C2=O)c(OCCCCOCCCCN2CCC(n3nc(-c4ccc(Oc5ccccc5)cc4)c4c(N)ncnc43)CC2)c1` [Compound 127, (2S,4R)—N-(2-(4-(4-(4-(4-amino-3-(4-phenoxyphenyl)-1H-pyrazolo[3,4-d]pyrimidin-1-yl)piperidin-1-yl)butoxy)butoxy)-4-(4-methylthiazol-5-yl)benzyl)-4-hydroxy-1-((S)-3-methyl-2-(1-oxoisoindolin-2-yl)butanoyl)pyrrolidine-2-carboxamide], in experiment [2] (NAMALWA cells, read-out: DC50), the DC50 was 162 nM. The same compound returned a Max in experiment [2] (concentration not given) of 50%.

As to `CN1C(=O)CCC(N2C(=O)c3ccc(NC(=O)COCCOCCN4CCC(n5nc(-c6ccc(Oc7ccccc7)cc6)c6c(N)ncnc65)CC4)cc3C2=O)C1=O` (stereo not drawn) [Compound 130, 2-(2-(2-(4-(4-amino-3-(4-phenoxyphenyl)-1H-pyrazolo[3,4-d]pyrimidin-1-yl)piperidin-1-yl)ethoxy)ethoxy)-N-(2-(1-methyl-2,6-dioxopiperidin-3-yl)-1,3-dioxoisoindolin-5-yl)acetamide], in experiment [2] (NAMALWA cells), the “ability to degrade BTK” value is listed as “neither ibrutinib nor Compound 130 were able to induce degradation of BTK”.

For the compound `Nc1ncnc2c1c(-c1ccc(Oc3ccccc3)cc1)nn2C1CCN(CCOCCOCCOc2ccc3c(c2)C(=O)N(C2CCC(=O)NC2=O)C3=O)CC1` (stereo not drawn) [Compound 131, 5-(2-(2-(2-(4-(4-amino-3-(4-phenoxyphenyl)-1H-pyrazolo[3,4-d]pyrimidin-1-yl)piperidin-1-yl)ethoxy)ethoxy)ethoxy)-2-(2,6-dioxopiperidin-3-yl)isoindoline-1,3-dione], the DC50 in experiment [2] (NAMALWA cells, read-out: DC50) worked out at 13 nM. In experiment [2] (concentration not given), the Max was over 99%.

`Nc1ncnc2c1c(-c1ccc(Oc3ccccc3)cc1)nn2C1CCN(CCOCCOCCOc2ccc3c(c2)CN(C2CCC(=O)NC2=O)C3=O)CC1` (stereo not drawn) [Compound 135, 3-(5-(2-(2-(2-(4-(4-amino-3-(4-phenoxyphenyl)-1H-pyrazolo[3,4-d]pyrimidin-1-yl)piperidin-1-yl)ethoxy)ethoxy)ethoxy)-1-oxoisoindolin-2-yl)piperidine-2,6-dione]: the DC50 in experiment [2] (NAMALWA cells, read-out: DC50) amounted to 7 nM. In addition, the Max in experiment [2] (concentration not given) is over 99%.
